Source: patent publication US9969714B2, “Carboxylic acid compounds useful for inhibiting microsomal prostaglandin E2 synthase-1” (Eli Lilly and Company, priority 2014, dated 2018)

Experiments:
[1] = tested on: human whole blood; assay: Human whole blood assay (LPS-induced PGE2, LC/MS/MS); type: cell-based; settings: LPS 100 μg/mL, 20-24 hours, n=6, read-out: IC50, inhibition of PGE2 formation
Procedure: Blood is collected from normal volunteer donors into sodium heparin VACUTAINER tubes. Donors are selected, in part, on their confirmation that they have not taken NSAIDs, aspirin, Celebrex®, or glucocorticoids within two weeks of the donation. All tubes/donor are pooled into 250 mL Corning conical centrifuge tubes and 436.5 μL/well is distributed into deep well polypropylene plates. Compounds are diluted in DMSO to 100× final and 4.5 μL/well in duplicate or triplicate is added to give 7 point curves. […] One hundred microliters is quantitatively transferred to Costar cluster tubes blocks and 400 μL/well of the methanol stop reagent and internal standards, d4-PGE2, d4-PGF2α, and […] are added. […]
Solid phase extraction is performed using Waters HLB 30 mg/bed 96 well plates on a vacuum manifold: Step 1, the matrix is washed with methanol (1 mL), followed by 0.1% formic acid in water (1 mL); Step 2, 400 μL sample is applied along with 0.1% formic acid in water (900 μL) and allowed to bind for 5 minutes; Step 3, the matrix is washed with 0.1% formic acid in water (600 μL), followed by 80/20 water/methanol (600 μL); Step 4, the products are eluted with 2-500 μL volumes of EtOAc; Step 5 the samples are dried under nitrogen and reconstituted in 75/25 water/acetonitrile with 0.1% formic acid (50 μL). The products are analyzed by LC/MS/MS.

[2] = tested on: Human epithelial lung carcinoma cell line A549; assay: Cell based assay for measuring eicosanoid selectivity (rhIL-1β-induced PGE2, EIA); settings: A549 cells, rhIL-1β 0.1 ng/mL, approximately 18 hours, read-out: IC50, inhibition of PGE2 formation
Procedure: Human epithelial lung carcinoma cell line A549 is obtained from ATCC (CCL-185) and maintained in cell growth medium (Kaighn's F12 cell culture medium+10% fetal bovine serum (FBS)), under standard 5% CO2 humidified atmosphere at 37° C. The cells are passaged at 1:3 twice per week.
For the assays, cells are harvested from flasks by washing once with phosphate buffered saline (PBS), then once with Trypsin-EDTA. After 3-5 minutes at 37° C., the cells are suspended in cell growth medium and centrifuged at 2,000 rpm, 25° C., for 5 minutes. The supernatant is aspirated and the cell pellet is re-suspended in cell growth medium. The cell number is determined by counting an aliquot of cells which has been diluted in PBS and Trypan blue on a hemocytometer. Cells are plated at 40,000/well in 96 well Falcon plates 24 hours prior to treatment. Compounds are diluted in DMSO to 100× of the final concentration in Screen Mates tubes. The medium is removed from the cells and fresh medium (90 μL/well) is added to the cells. The compounds are added at 1 μL/well, n=2, to give seven concentrations each. Cells are pretreated with compounds for 30 minutes at 37° C., 5% CO2. […] After approximately 90-120 minutes at room temperature on an orbital shaker at 100 rpm, the plates are read at A412 on a plate reader. […]

In the case of Cc1cccc2ccc(N3CCC(C(=O)N[C@H]4CCC[C@H]4CCc4ccccc4C(=O)O)CC3)nc12 [Example 1, 2-(2-((1S,2S)-2-(1-(8-Methylquinolin-2-yl)piperidine-4-carboxamido)cyclopentyl)ethyl)benzoic acid], the IC50 [1] is reported as 5.9 ± 3.4 nM and the IC50 [2] is reported as 5.3 nM.
